Laboratory results from US6562244B1, “Method and apparatus for disinfecting drainage” (Ebara Corporation, priority 1998, dated 2003).
≈ marks a conversion by molar mass, not a printed value.

Key:
coliform organisms [1] = assay: Sterilization test of treated drainage from marine product processing (Example 2); format: cell-based; conditions: for Coliform organism count: marine product processing drainage (initial 320000 CFU/mL)
Description: Drainage from the marine product processing industry was subjected to coagulation, pressurization, floating, and separation. Then, the drainage was further treated by an activated sludge process. The resulting drainage was used as water to be treated. A sterilization test of this water to be treated was conducted, with the concentration of a disinfectant being varied. [table]

aquatic organisms = conditions: calculated as active chlorine (Cl2); aquatic organisms in public waters; cited from earlier work
coliform organisms [2] = assay: Disinfection of wet-weather sewage by the system of FIGS. 1 to 3 (Example 3), coliform organism count; format: cell-based
Description: Examples of the present invention will now be described, but the invention is not restricted thereby. Drainage was treated by the system show in FIGS. 1 to 3. In all of RUN 1 to RUN 4, the amount of the disinfectant being 0 (zero) corresponds to the incoming water quality of wet-weather sewage which has flowed into rainwater removal facilities.

coliform organisms [3] = assay: Sterilization test of coliform organisms in treated sewage (Example 1); format: cell-based; conditions: for Coliform organism count: treated sewage (initial 12600 CFU/mL)
Description: Treated sewage containing coliform organisms, as water to be treated, was subjected to a sterilization test. As a disinfectant, each of 1-bromo-3-chloro-5,5-dimethylhydantoin (hereinafter referred to as BCDMH) (Example 1) and sodium hypochlorite (Comparative Example 1) was used. The sterilization test of coliform organisms was conducted, with the concentration of the disinfectant being varied.
In the present specification, the proportion of the disinfectant added is expressed as active chlorine for each of the bromine-based disinfectant and the chlorine-based disinfectant, and is expressed as “mg/L as Cl” calculated as the active chlorine concentration. For example, when 1 g of BCDMH is added to 1 liter of drainage, its concentration is 540 mg/L as Cl.

[4] = disinfectant added 2.0 mg/L as Cl

## CC1(C)C(=O)N(Cl)C(=O)N1Br [BCDMH, 1-bromo-3-chloro-5,5-dimethylhydantoin]
Coliform organisms [1]; disinfectant added 2.0 mg/L as C1
  Coliform organism count: 52000 CFU/mL
Coliform organisms [1]; disinfectant added 3.0 mg/L as C1
  Coliform organism count: 1200 CFU/mL
Coliform organisms [1]; disinfectant added 3.5 mg/L as C1
  Coliform organism count: Not detected
Coliform organisms [1]; marine product processing drainage, Example 2
  concentration exhibiting germicidal effect relative to the concentration of sodium hypochlorite: ⅓
Aquatic organisms
  LC50: 0.4 µg/mL (≈ 1.66 µM)
Coliform organisms [2]; RUN 1, sewage 120 m^3/h (incoming 97 × 10^3), amount added 6.0 mg/l as chlorine (Cl2)
  Coliform organism count: 83 × 10^2 CFU/ml
Coliform organisms [2]; RUN 1, sewage 120 m^3/h (incoming 97 × 10^3), amount added 12.0 mg/l as chlorine (Cl2)
  Coliform organism count: less than 3,000 CFU/ml
Coliform organisms [2]; RUN 2, sewage 250 m^3/h (incoming 68 × 10^3), amount added 5.0 mg/l as chlorine (Cl2)
  Coliform organism count: less than 3,000 CFU/ml
Coliform organisms [2]; RUN 2, sewage 250 m^3/h (incoming 68 × 10^3), amount added 5.0 mg/l as chlorine (Cl2), listed as A
  Coliform organism count: 18 × 10^2 CFU/ml
Coliform organisms [2]; RUN 2, sewage 250 m^3/h (incoming 68 × 10^3), amount added 10.0 mg/l as chlorine (Cl2)
  Coliform organism count: 20 or less CFU/ml
Coliform organisms [2]; RUN 3, sewage 530 m^3/h (incoming 39 × 10^3), amount added 3.0 mg/l as chlorine (Cl2)
  Coliform organism count: 28 × 10^2 CFU/ml
Coliform organisms [2]; RUN 3, sewage 530 m^3/hour, amount added 3 to 4.5 mg/l
  duration of contact with combined sewer overflow for appropriate disinfection: about 50 seconds
Coliform organisms [3]; disinfectant added 0.5 mg/L as Cl
  Coliform organism count: 10800 CFU/mL
Coliform organisms [3]; disinfectant added 1.5 mg/L as Cl
  Coliform organism count: 70 CFU/mL
Coliform organisms [3]; [4]
  Coliform organism count: Not detected
Coliform organisms [3]; treated sewage, Example 1
  concentration exhibiting germicidal effect relative to the concentration of sodium hypochlorite: a half or less
  reaction time to show sufficient effect: 1 min

## OCl [Sodium hypochlorite, sodium hypochlorite, reference compound]
Coliform organisms [1]; disinfectant added 6 mg/L as C1
  Coliform organism count: 135000 CFU/mL
Coliform organisms [1]; disinfectant added 8 mg/L as C1
  Coliform organism count: 1900 CFU/mL
Coliform organisms [1]; disinfectant added 10 mg/L as C1
  Coliform organism count: 900 CFU/mL
Coliform organisms [1]; disinfectant added 12 mg/L as C1
  Coliform organism count: Not detected
Coliform organisms [2]; RUN 4, sewage 250 m^3/h (incoming 46 × 10^3), amount added 30 mg/l as chlorine (Cl2)
  Coliform organism count: 19 × 10^3 CFU/ml
Coliform organisms [2]; RUN 4, sewage 250 m^3/h (incoming 46 × 10^3), amount added 60 mg/l as chlorine (Cl2)
  Coliform organism count: > 3,000 CFU/ml
Coliform organisms [2]; RUN 4, sewage 250 m^3/h (incoming 46 × 10^3), amount added 60 mg/l as chlorine (Cl2), listed as B
  Coliform organism count: 41 × 10^2 CFU/ml
Coliform organisms [3]; [4]
  Coliform organism count: 11800 CFU/mL
Coliform organisms [3]; disinfectant added 2.5 mg/L as Cl
  Coliform organism count: 2800 CFU/mL
Coliform organisms [3]; disinfectant added 3.0 mg/L as Cl
  Coliform organism count: 300 CFU/mL
Coliform organisms [3]; disinfectant added 3.5 mg/L as Cl
  Coliform organism count: Not detected
Coliform organisms [3]; treated sewage, Example 1
  reaction time to show sufficient effect: more than 5 minute
